These results are taken from the NIST ThermoML archive (doi:10.1016/j.fluid.2007.01.022).

Structures are written as SMILES. ± gives the expanded uncertainty stated by the source.

For the data set the following is noted: 298.15 K; 101.33 kPa; Liquid.
Consider `Cc1ccccc1N` [2-methylaniline], for which the mass density is recorded as 994.343 ± 0.24 kg/m3. Regarding `CCCCCCC` [heptane], the mass density was 679.627 ± 0.85 kg/m3. On to `CCCCCCCC` [octane], for which the mass density is recorded as 698.636 ± 1.3 kg/m3.

With `CCCCCCCCCCCC` [dodecane], the mass density is 741.54 ± 1.6 kg/m3. For `CCCCCCCCC` [nonane], the mass density came to 714.064 ± 1.3 kg/m3. Regarding `CCCCCCCCCC` [decane], the mass density is listed as 726.412 ± 1.6 kg/m3.

The term mass density denotes the mass of a sample divided by its volume.
